pIC50: −log10 of the molar value.
Assays:
[1] = test system: U266-Luc MM cells; test: U266-Luc in vivo model, tail vein injection; settings: 10 mg/kg/day, M-F, from day 20; days post-tumor inoculation
Protocol: For the U266-Luc model, 1 × 10^6 cells (100 μl/PBS) were tail vein injected into 4- to 6-week-old female and male NSG mice. […] Endpoint was represented by hind limb paralysis or >20% weight loss. When sacrificed, tumors tibiae were harvested and fixed in 10% neutral buffered formalin for 24 hours. Bioluminescent signal is reported as the average of the sum of dorsal and ventral signal of the mice/group/timepoint. […]
28 Animal Experimentation: All animal experiments were performed with approval from the
29 Moffitt/University of South Florida Institutional Animal Care and Use Committee (Protocol
31 validation of MA9 efficacy (Figure 4), we initially included n = 10 mice per treatment group:
Randomization based on sex, weight,
33 and initial tumor burden was conducted, followed by treatment with either vehicle control (n = 6),
35 Tumor progression was tracked via bioluminescence: endpoint was paralysis or >20% weight loss.
36 Experiments were blinded. […]
38 For MA9 therapy efficacy, mice were treated with vehicle (n=10) or MA9 (10 mg/kg/day,
39 subcutaneously, M-F from day 20; n=10) (Supplementary Fig. 7E, F). Survival and toxicity
40 (weight, clinical signs) was monitored.
43 Luciferase-labeled MM cells 5TGM1-Luc (RRID: CVCL_VI66) and U266-Luc (RRID: […]
51 cells (all from the ATCC, USA) were routinely cultured at 37 °C in Roswell Park Memorial
53 FBS1) and penicillin/streptomycin (hereafter, complete medium).
54 Cells were not used for five days following PI-treatment. All myeloma cell lines were […]

[2] = test system: autophagy proteins in U266 MM cells; test: Immunoblot densitometry of autophagy proteins; format: cell-based, Human; settings: U266, 6h, MA9-060 1μM, JQ1 10μM, CQ 1μM; for LC3II densitometry: CTRL 0.34; for LC3I densitometry: CTRL 3.01; for ULK1 densitometry: CTRL 7.21; for ULK3 densitometry: CTRL 15.17
Protocol: Figure 3. Anti-myeloma activity of the MA9–060 autophagy inhibitor. A. Chemical structure of the autophagy inhibitor MA9–060. […] Chloroquine (CQ) (1μM) served as a positive control for autophagy inhibition. C. […] Hoechst 33342 dye appears here as the nuclear blue staining (Multiple comparisons ANOVA, p <0.0001).
157 5872S). Protein concentration was quantified by Thermo Scientific™ Pierce™ BCA™ Protein
30 μg protein was loaded to 10%-15% gel and ran at
159 100V for 2 hours. Later protein was transferred to PVDF membrane and blocked with 5% skimmed
160 milk in TBST (10 mM Tris/HCl pH8.0, 0.12M NaCl, 0.1% Tween 20) containing 5% BSA [8] for
163 at 4°C overnight. Membranes were washed 3 times,10 minutes with TBS. Then incubated with
164 appropriate secondary antibodies at 1:1000 ratio in skimmed milk or 2% BSA. The membranes
165 were washed again 3 times for 10 minutes with TBST. ECL reagents were added to the membrane
166 and blot was developed by LICOR Imaging Studio.
167 All immunoblotting assays were performed at least in three replicates and representative
168 images are shown. Commercially available antibodies and their dilutions are listed in
169 Supplementary Table 5. Immunoblotting images were acquired and quantified using LICOR
170 Image Studio Quant software. […]

[3] = test system: autophagy in U266 MM cells; test: CYTO-ID autophagy detection; format: cell-based, Human
Protocol: Autophagic activity was monitored using the Cyto-ID Green Autophagy Detection Kit (Enzo Life Sciences, ENZ-51031-K200, USA) as per manufacturer’s instructions. Further details and protocols for quantitative analysis by Flow Cytometry and Confocal Microscopy are provided in Supplementary Materials.
248 80% confluence. Cells were pelleted again and re-suspended in Resuspension Buffer R (Neon 10
249 μl kit Invitrogen) to a final concentration of 1 × 10^7 cells/ml. 1 × 10^6 cells were then transferred to
250 a sterile 1.5 ml microcentrifuge tube (Sarstedt), brought to 10 μl final volume of cell suspension
251 with Buffer R, and mixed with Alt-R CRISPR-Cas9 crRNA: Hs.Cas9.ULK3.1.AA (position
253 […]), (Integrated DNA Technologies). Alt-R CRISPR-Cas9
254 Negative Control RNA #1 (CAT# 1079138) was used in NTC control. Cells were counted,
255 electroporated and seeded in a 24-well plate with 0.5 ml of pre-warmed supplemented RPMI
258 Measurement of autophagic activity - CytoID Assay
260 autophagic compartments. Cells were washed and treated with 1 μM tested compound or vehicle
261 control for 6h under standard tissue culture conditions. […]
270 later, cells were washed and assessed by flow cytometry. […]
272 compensation and fluorescence-minus-one (FMO) controls were generated in parallel. […]
273 fluorescence intensity (MFI) and percentage of Cyto-ID Green-expressing MM singlet live (DAPI […]

[4] = test system: U266; test: MTS cell viability assay; format: cell-based; settings: Homo sapiens, U-266; U266, 48h, Fig. 6E; read-out: IC50, Survival (%)
Protocol: (§1) Myeloma cell lines were plated in 96-well plates (2 × 10^5 cells/ml) and treated with vehicle control (HPβCD) and test compounds. Cell viability was assessed at 48 hours using the MTS assay (CellTiter 96, CAT# G3582). Absorbance was measured at 490 nm after a 2-hour incubation at 37°C. IC50 values were calculated using Prism software (version 9.3.1), and synergy matrices were generated with Combenefit Software.

[5] = test system: U266-PSR; test: MTS cell viability assay; format: cell-based; settings: 48h, Fig. 6E, read-out: IC50, Survival (%)
Protocol: as §1

SMILES | median survival [1] [days] | LC3II densitometry [2] | LC3I densitometry [2] | ULK1 densitometry [2] | ULK3 densitometry [2] | effect on autophagy [3] | pIC50 [4] | pIC50 [5]
Cc1sc2c(c1C)C(c1ccc(Cl)cc1)=N[C@@H](CC(=O)OC(C)(C)C)c1nnc(C)n1-2 [JQ1] | 90.5 | 0.40 | 3.36 | 6.20 | 16.81 | no effect |  | 
CCN(CC)CCCC(C)Nc1ccnc2cc(Cl)ccc12 (stereo not shown) [CQ, Chloroquine] | 81.5 | 0.14 | 1.69 | 0.78 | 11.1 |  | 4.26 | 2.06
